Source: PubChem BioAssay (NCI)
Where “and” joins values, the source holds several entries; their conditions need not be identical. Identical values can stand only once.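 Results reflect a 48-hour exposure of cells in 96-well plates to compound at five concentrations. Here, GI50 denotes the concentration required for 50% inhibition of growth. TGI: total growth inhibition.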

Columns and labels:
Experiment in all cases: inhibition of tumour cell growth, NCI panel, 48 h
[1] = system: K-562 leukemia
[2] = system: PC-3 prostate
[3] = system: NCI-H460 lung
[4] = system: M14 melanoma
[5] = system: MALME-3M melanoma
[6] = system: CCRF-CEM leukemia
[7] = system: NCI-H226 lung
[8] = system: NCI/ADR-RES ovarian
[9] = system: LOX IMVI melanoma
[10] = system: MOLT-4 leukemia

SMILES	GI50 [1]	TGI [1]	GI50 [2]	TGI [2]	GI50 [3]	TGI [3]	GI50 [4]	TGI [4]	GI50 [5]	TGI [5]	GI50 [6]	TGI [6]	GI50 [7]	TGI [7]	GI50 [8]	TGI [8]	GI50 [9]	TGI [9]	GI50 [10]	TGI [10]
NC(N)=N/N=C(/c1ccccc1)c1ccccc1F	1.32 µM	> 100 µM	4.7 µM	> 57.7 µM	2.31 µM	10.4 µM	1.7 µM	9.59 µM	8 µM	25.6 µM	5.08 µM	> 100 µM	5.35 µM	22 µM	2.69 µM	9.74 µM	4.69 µM	19.9 µM	5.57 µM	> 100 µM
CN(C)c1ccc(N=C2C=CC(=C(C#N)C#N)c3ccccc32)cc1	–	5.71 µM	–	10.8 µM	–	7.08 µM	–	8.79 µM	–	17.1 µM	–	3.46 µM	–	0.741 µM	–	2.34 µM	–	3.49 µM	–	8.04 µM
CC1(C)CC[C@]2(C(=O)O)CC[C@]3(C)C(=CC[C@@H]4[C@@]5(C)C/C(=C/c6ccco6)C(=O)C(C)(C)[C@@H]5CC[C@]43C)[C@@H]2C1	3.37 µM	> 100 µM	2.62 µM	14.9 µM	3.38 µM	12.2 µM	4.51 µM	21.6 µM	3.99 µM	16.6 µM	3.16 µM	31.6 µM	3.42 µM	19.5 µM	3.64 µM	44.5 µM	2.46 µM	6.77 µM	1.04 µM	> 100 µM
O=c1nc2[nH]c3c(-c4n[nH]c(=O)[nH]c4=O)cccc3c2n[nH]1	> 100 µM	> 100 µM	> 100 µM	> 100 µM	> 100 µM	> 100 µM	> 100 µM	> 100 µM	> 100 µM	> 100 µM	> 100 µM	> 100 µM	> 100 µM	> 100 µM	> 100 µM	> 100 µM	> 100 µM	> 100 µM	> 100 µM	> 100 µM
COC(=O)[C@H](Cc1cn(C)cn1)NC(=O)[C@@H](NC(=O)Nc1cc(C(F)(F)F)cc(C(F)(F)F)c1)C(C)C	4.74 µM	> 10 µM	4.35 µM	> 10 µM	3.53 µM	> 10 µM	8.62 µM	> 10 µM	> 10 µM	> 10 µM	3.15 µM	> 10 µM	> 10 µM	> 10 µM	> 10 µM	> 10 µM	1.74 µM	3.4 µM	3.16 µM	> 10 µM
OCCCCC#Cc1ccccc1C#Cc1ccc(C(F)(F)F)cc1	18.2 µM	43.6 µM	17.5 µM	35 µM	23.3 µM	60.3 µM	17.1 µM	38.3 µM	19.7 µM	35.5 µM	19.6 µM	44.1 µM	18.7 µM	34.1 µM	15 µM	30.7 µM	17.1 µM	31.5 µM	13.6 µM	31.4 µM
C=C(Cn1c2ccccc2c(=O)c2ccccc21)c1ccc(C(=O)Nc2ccccc2N)cc1	1.35 µM	> 100 µM	0.761 µM	> 100 µM	4.72 µM	> 100 µM	12.2 µM	> 100 µM	6.45 µM	> 100 µM	0.224 µM	19.2 µM	> 24.8 µM	> 100 µM	2.31 µM	> 100 µM	50.4 µM	> 100 µM	0.767 µM	> 26 µM
N/C(=N\C(N)=N\c1nc2ccccc2s1)c1cnccn1	3.69 µM	> 100 µM	3.78 µM	> 100 µM	3.59 µM	> 100 µM	3.21 µM	> 100 µM	2.27 µM	5.66 µM	3.59 µM	> 100 µM	2.45 µM	6.34 µM	4.28 µM	> 100 µM	3.47 µM	> 100 µM	3.48 µM	> 100 µM
O=C(OC[C@@H]1CO1)c1cccc2c(=O)c3ccccc3[nH]c12	0.24 µM	> 100 µM	0.381 µM	> 21.8 µM	0.38 µM	1.75 µM	0.344 µM	1.65 µM	0.472 µM	1.76 µM	0.0896 µM	> 100 µM	0.301 µM	1.48 µM	0.253 µM	2.08 µM	0.0807 µM	0.48 µM	0.0531 µM	–
C#Cc1cccc(NC(=O)C2CCCN(C(=O)CCl)C2)c1 (configuration not stated)	36.6 µM	> 82.5 µM	> 82.5 µM	> 82.5 µM	> 82.5 µM	> 82.5 µM	29.9 µM	> 82.5 µM	18.1 µM	78.6 µM	21.7 µM	64.4 µM	> 82.5 µM	> 82.5 µM	> 82.5 µM	> 82.5 µM	14.4 µM	28.7 µM	23.4 µM	75.1 µM
COc1ccc(OCC(O)CN2CCN(c3ccc(Cl)cc3)CC2)cc1 (configuration not stated)	> 100 µM	> 100 µM	> 100 µM	> 100 µM	> 100 µM	> 100 µM	> 100 µM	> 100 µM	59.7 µM	> 100 µM	> 100 µM	> 100 µM	37.9 µM	> 100 µM	> 100 µM	> 100 µM	> 100 µM	> 100 µM	> 100 µM	> 100 µM
COc1ccc(/C=C/C(C)=N/OCC(=O)Nc2ccc(Cl)cc2)cc1	2.42 µM	17.2 µM	1.84 µM	13.1 µM	3.1 µM	16.7 µM	3.01 µM	14.1 µM	4.22 µM	23.3 µM	2.41 µM	29.9 µM	3.38 µM	26.7 µM	2.9 µM	15.3 µM	2.63 µM	15.5 µM	2.23 µM	9.97 µM
CNCc1ccc(-c2[nH]c3cc(F)cc4c3c2CCNC4=O)cc1	18 µM	43.9 µM	23.6 µM	> 100 µM	14.9 µM	42.3 µM	16.6 µM	32.7 µM	17 µM	36.1 µM	25.6 µM	> 93 µM	15.6 µM	43.4 µM	69.2 µM	> 100 µM	12.9 µM	29.2 µM	21.9 µM	68 µM
Cc1ccc(S(=O)(=O)N2CCC(C(=O)O)(c3ccccc3)CC2)cc1	–	> 100 µM	–	> 100 µM	–	> 100 µM	–	> 100 µM	–	> 100 µM	–	> 100 µM	–	> 100 µM	–	> 100 µM	–	> 100 µM	–	> 100 µM
COc1ccc(/C(C)=C(\c2ccc(Cl)cc2)c2ccc(OCCN3CCCCCC3)cc2)cc1F	0.828 µM	16.4 µM	3.8 µM	15 µM	2.56 µM	5.4 µM	2.74 µM	7.18 µM	2.25 µM	4.72 µM	4.51 µM	> 16.7 µM	5.47 µM	> 16.7 µM	4 µM	12.4 µM	2.51 µM	4.82 µM	3.91 µM	11.8 µM
COc1c(O)c2c3c(c1OC)-c1ccccc1CC3N(S(=O)(=O)c1ccc(C)cc1)CC2 (configuration not stated)	0.223 µM	7.65 µM	1.65 µM	> 50 µM	1.58 µM	> 50 µM	1.81 µM	> 50 µM	7.88 µM	> 50 µM	1.34 µM	4.94 µM	11.4 µM	> 50 µM	1.49 µM	4.54 µM	2.59 µM	> 50 µM	2.14 µM	10.9 µM
N#CCC1(n2cc(-c3ncnc4[nH]ccc34)cn2)CN(C2CCN(C(=O)c3ccnc(C(F)(F)F)c3F)CC2)C1	99.2 µM	> 100 µM	> 100 µM	> 100 µM	> 100 µM	> 100 µM	> 100 µM	> 100 µM	> 100 µM	> 100 µM	54.5 µM	> 100 µM	19.3 µM	> 100 µM	> 100 µM	> 100 µM	96.8 µM	> 100 µM	49.9 µM	> 100 µM
O=NN(CCCl)C(=O)NC1CCCCC1	10.9 µM and 36.6 µM	43.9 µM and 228 µM and 106 µM	–	136 µM	24.1 µM and 67.7 µM	69.2 µM and 124 µM and 187 µM	16.8 µM and 56.8 µM	33 µM and 127 µM and 82.8 µM	18 µM	37 µM and 150 µM and 112 µM	8.23 µM and 22.6 µM	40.9 µM and 98.4 µM and 57.5 µM	25.2 µM	68.2 µM and 150 µM and 180 µM	–	186 µM	14.2 µM and 27.9 µM	52 µM and 56.9 µM and 74.8 µM	20.7 µM and 36.1 µM	38.4 µM and 99.1 µM and 80.3 µM
CCN1CCN(c2nc(NNC(=O)c3ccccc3)nc(N3CCN(C(c4ccccc4)c4ccccc4)CC3)n2)CC1	1.77 µM	4.32 µM	1.9 µM	7.57 µM	2.1 µM	4.63 µM	1.88 µM	3.56 µM	1.7 µM	3.48 µM	2.05 µM	6.36 µM	11.9 µM	29.5 µM	3.32 µM	14.3 µM	1.82 µM	3.35 µM	2.01 µM	5.42 µM
CNCc1cccc2c1OCCOCCOCCC(C)S(=O)(=O)c1ccc(cc1)-c1cnc(N)c(n1)C(=O)N2 (configuration not stated)	1.5 µM	10.4 µM	1.49 µM	17.9 µM	1.12 µM	2.73 µM	1.27 µM	3.03 µM	1.59 µM	3.13 µM	0.67 µM	7.2 µM	1.98 µM	5.46 µM	5.31 µM	29.1 µM	1.81 µM	5.41 µM	1.3 µM	10.3 µM
COc1cccc(C2C(C#N)=C(N)Oc3cc4c(cc32)OCO4)c1 (configuration not stated)	0.04 µM	> 100 µM	0.0534 µM	39.5 µM	0.0438 µM	12.2 µM	0.059 µM	16.3 µM	0.0501 µM	31.4 µM	0.0362 µM	19.9 µM	0.0455 µM	2.43 µM	0.0299 µM	0.151 µM	0.234 µM	17.2 µM	0.0745 µM	22.6 µM
Cc1ccc(C2=C(Cl)C(=O)C(c3ccc(C)cc3)=C(Cl)C2=O)cc1	–	> 100 µM	–	> 100 µM	–	> 100 µM	–	> 100 µM	–	> 100 µM	–	> 100 µM	–	> 100 µM	–	> 100 µM	–	> 100 µM	–	> 100 µM
COc1cc(/C=C2\C(=O)N(C)c3ccccc32)cc(OC)c1OC	5.02 µM	> 100 µM	10.5 µM	> 100 µM	10.8 µM	64.1 µM	16.8 µM	46.9 µM	82.7 µM	> 100 µM	5.42 µM	87.9 µM	19.1 µM	52.4 µM	13.7 µM	56.7 µM	11.1 µM	26.7 µM	12 µM	74.3 µM
CCCCC[C@@H](C/C=C/CCC(=O)NC/C(=C/Cl)[C@H]1C(=O)C(C)(C)C(=O)[C@@H](C)[C@@]1(C)O)OC	21.8 µM	48.5 µM	19.6 µM	43.5 µM	17.7 µM	35.1 µM	16.9 µM	31.2 µM	18.9 µM	35.5 µM	3.27 µM	15.7 µM	18 µM	36.1 µM	20.8 µM	41.3 µM	18.8 µM	38 µM	21 µM	59.3 µM
COc1cc(N(CCC#N)CCC#N)ccc1/C(N=Nc1ccc(C(=O)O)cc1)=N/NC(=O)c1cc(Br)ccc1O	> 150 µg/mL	> 150 µg/mL	81 µg/mL	> 150 µg/mL	40.9 µg/mL	> 150 µg/mL	72 µg/mL	> 150 µg/mL	> 150 µg/mL	> 150 µg/mL	82.4 µg/mL	> 150 µg/mL	53.2 µg/mL	> 150 µg/mL	49.4 µg/mL	> 150 µg/mL	84.4 µg/mL	> 150 µg/mL	67.5 µg/mL	> 150 µg/mL
